# How the values were obtained:
# [1] = system: cumulus-oocyte complexes (cumulus expansion); assay: cumulus expansion assay in vitro; assay type: cell-based, mice
# Protocol: Folliculogenesis is induced in immature female mice (strain: CD1 (ICR) from Charles River) at an age of 14-18 days by a single dose (intraperitoneal) of 10 I.U. of PMSG (Pregnant Mare Serum Gonadotropine; Sigma G-4877, Lot 68H0909). 47-50 hours after the injection, the ovaries are removed and the cumulus-oocyte complexes are removed. The cumulus complex is not yet expanded at this stage.
# The cumulus-oocyte complexes are then incubated with prostaglandin E2 (PGE2) (0.3 μM), vehicle control (ethanol) or test substances for 20-24 hours. Medium: alpha-MEM medium with 0.1 mM IBMX, pyruvates (0.23 mM) glutamines (2 mM), pen/strep 100 IU/ml pen. and 100 μg/ml strep.) and HSA (8 mg/ml)). Cumulus expansion is then established through the division into four stages (according to Vanderhyden et al. Dev Biol. 1990 August; 140 (2):307-317).
# [2] = biological target: T1, human prostaglandin E2 (subtype EP2) receptor (Homo sapiens, UniProt P43116); assay: cAMP antagonism assay; assay type: cell-based; conditions: in the presence of PGE2
# T1 construct: host or cells: cells in a culture plate
# T1 sequence (P43116 whole entry): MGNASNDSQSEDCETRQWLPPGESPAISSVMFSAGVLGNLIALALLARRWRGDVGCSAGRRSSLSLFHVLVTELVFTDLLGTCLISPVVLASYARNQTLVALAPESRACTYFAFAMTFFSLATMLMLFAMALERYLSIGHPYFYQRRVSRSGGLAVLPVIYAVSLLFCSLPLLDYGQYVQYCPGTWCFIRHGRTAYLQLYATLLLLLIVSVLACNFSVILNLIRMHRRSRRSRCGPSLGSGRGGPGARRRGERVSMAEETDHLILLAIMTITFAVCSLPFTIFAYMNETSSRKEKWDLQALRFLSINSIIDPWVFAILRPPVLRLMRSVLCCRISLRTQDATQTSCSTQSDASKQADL
# Protocol: (§1) The binding of PGE2 to the EP2 subtype of the human PGE2 receptor induces activation of membrane-associated adenylate cyclases and leads to the formation of cAMP. In the presence of the phosphodiesterase inhibitor IBMX, cAMP which has accumulated due to this stimulation and been released by cell lysis is employed in a competitive detection method. In this assay, the cAMP in the lysate competes with cAMP-XL665 for binding of an Eu cryptate-labelled anti-cAMP antibody.
# (§2) The two signals are measured in a suitable measuring instrument with a time lag, i.e. after the background fluorescence has declined.
# (§3) The substance solutions (0.75 μl) introduced into an assay plate and 30% DMSO are dissolved in 16 μl of a KRSB+IBMX stimulation solution (1× Krebs-Ringer Bicarbonate Buffer; Sigma-Aldrich # K-4002; including 750 μM 3-isobutyl-1-methylxanthine Sigma-Aldrich # I-7018), and then 15 μl thereof are transferred into a media-free cell culture plate which has been washed with KRSB shortly beforehand.
# After preincubation at room temperature (RT) for 30 minutes, 5 μl of a 4×PGE2 solution (11 nM) are added, and incubation is carried out in the presence of the agonist at RT for a further 60 min (volume: ˜20 μl) before the reaction is then stopped by adding 5 μl of lysis buffer and incubated at RT for a further 20 min (volume: ˜25 μl). The cell lysate is then transferred into a measuring plate and measured in accordance with the manufacturer's information (cyclic AMP kit Cisbio International #62AMPPEC).
# [3] = biological target: T1, human prostaglandin E2 (subtype EP2) receptor; assay: cellular cAMP agonism assay; assay type: cell-based
# Protocol: as §1, §2, §3
# After incubation at room temperature (RT; volume: ˜15 μl) for 60 minutes, the reaction is then stopped by adding 5 μl of lysis buffer and incubated at RT for a further 20 min (volume: ˜20 μl). The cell lysate is then transferred into a measuring plate and measured in accordance with the manufacturer's information (cyclic AMP kit Cisbio International #62AMPPEC).
SMILES,"inhibition of cumulus expansion ([1]; concentration 100-200 μM, competing with the natural EP2 receptor agonist PGE2)",IC50 [2],"inhibition of cumulus expansion ([1]; concentration 10 μM (10 to 20 times lower than AH 6809), competing with PGE2)",effect in the cellular agonism test [3]
"CC(C)Oc1ccc2c(=O)c3cc(C(=O)O)ccc3oc2c1 [AH 6809, reference compound]",~30%,–,–,–
"COc1ccc(OCC(=O)NCCc2c(C)[nH]c3c(F)ccc(C)c23)cc1 [Example 1, N-[2-(7-Fluoro-2,4-dimethyl-1H-indol-3-yl)ethyl]2-(4-methoxyphenoxy)acetamide]",–,1.1 µM,–,–
"Cc1[nH]c2c(F)ccc(C)c2c1CCNC(=O)COc1ccccc1 [Example 5, N-[2-(7-Fluoro-2,4-dimethyl-1H-indol-3-yl)-ethyl]-2-phenoxy-acetamide]",–,2.7 µM,–,–
"Cc1[nH]c2c(F)ccc(C)c2c1CCNC(=O)COc1ccc(Cl)cc1 [Example 6, 2-(4-Chlorophenoxy)-N-[2-(7-fluoro-2,4-dimethyl-1H-indol-3-yl)ethyl]-acetamide]",–,1.3 µM,30%,no inhibition
